Test results taken from patent US7569607B2, “Spider esters in personal care applications” (SurfaTech Corporation, priority 2005, dated 2009).

Test: Sun Screen Solubility (appearance of sunscreen dissolved in ester)
Type: physicochemical
Conditions: for Age Appearance: after 48 hours at room temperature, 24 hours in refrigerator (37° F.) and 48 hours at room temperature; for Initial Appearance: solvent ester not named

Age Appearance (1% weight sunscreen) | Initial Appearance (1% weight sunscreen) | Age Appearance (3% weight sunscreen) | Initial Appearance (3% weight sunscreen) | Compound
Very Slight Haze^(2) | Clear | Very Slight Haze^(2) | Clear | COc1ccc(C(=O)c2ccccc2)c(O)c1 [Benzophenone 3]
Clear | Clear |  |  | CCCCC(CC)COC(=O)C=Cc1ccc(OC)cc1 (stereo not drawn) [Octylmethoxyciminate]
